Read-outs that look alike come from different tables or passages of the source.
Columns and labels:
CAR (NR1I3) = target: T1, CAR (NR1I3) (Homo sapiens, UniProt Q14994); assay: ATG_CAR_TRANS: Factorial reporter gene assay (HepG2); assay type: cell-based; parameters: endogenous in cells; host or cells: HepG2
T1 sequence (Q14994 1-352): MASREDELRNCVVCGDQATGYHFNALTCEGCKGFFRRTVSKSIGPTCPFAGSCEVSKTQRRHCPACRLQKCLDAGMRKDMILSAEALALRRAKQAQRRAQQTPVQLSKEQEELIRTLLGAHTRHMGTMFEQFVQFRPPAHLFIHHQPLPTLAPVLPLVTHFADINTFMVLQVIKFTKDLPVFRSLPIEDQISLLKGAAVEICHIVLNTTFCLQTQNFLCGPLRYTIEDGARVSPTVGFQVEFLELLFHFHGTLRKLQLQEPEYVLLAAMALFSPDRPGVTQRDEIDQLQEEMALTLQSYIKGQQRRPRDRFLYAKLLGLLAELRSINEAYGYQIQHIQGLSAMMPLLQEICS
Procedure: (§1) A multiple reporter transcription unit (MRTU) library consisting of 48 transcription factor binding sites was transfected into the HepG2 human liver hepatoma cell line. In addition to the cis-acting reporter genes (CIS), a modification of the approach was used to generate a trans-system (TRANS) with a mammalian one-hybrid assay consisting of an additional 25 MRTU library reporting the activity of nuclear receptor super-family members. […] These assays were performed by Attagene Inc. (Morrisville NC) under contract to EPA.
(§2) In addition to the cis-acting reporter genes (CIS), a modification of the approach was used to generate a trans-system (TRANS) with a mammalian one-hybrid assay consisting of an additional 25 MRTU library reporting the activity of nuclear receptor super-family members. […] Chemicals were then tested in the CIS and TRANS assays at seven concentrations starting at the MTC and followed by three-fold serial dilutions. These assays were performed by Attagene Inc. (Morrisville NC) under contract to EPA. Detailed description of the methods, data and analysis methods for this dataset will be presented in a separate publication.

[1] = target: T2, ESRRA (estrogen-related receptor alpha) (Homo sapiens, UniProt P11474); assay: ATG_ERRa_TRANS: Factorial reporter gene assay (HepG2); assay type: cell-based; details: scale not given, looks like -log10 of molar active concentration, 0 = no activity
T2 construct: expressed in transfected cells; host or cells: HepG2
T2 sequence (P11474 1-423): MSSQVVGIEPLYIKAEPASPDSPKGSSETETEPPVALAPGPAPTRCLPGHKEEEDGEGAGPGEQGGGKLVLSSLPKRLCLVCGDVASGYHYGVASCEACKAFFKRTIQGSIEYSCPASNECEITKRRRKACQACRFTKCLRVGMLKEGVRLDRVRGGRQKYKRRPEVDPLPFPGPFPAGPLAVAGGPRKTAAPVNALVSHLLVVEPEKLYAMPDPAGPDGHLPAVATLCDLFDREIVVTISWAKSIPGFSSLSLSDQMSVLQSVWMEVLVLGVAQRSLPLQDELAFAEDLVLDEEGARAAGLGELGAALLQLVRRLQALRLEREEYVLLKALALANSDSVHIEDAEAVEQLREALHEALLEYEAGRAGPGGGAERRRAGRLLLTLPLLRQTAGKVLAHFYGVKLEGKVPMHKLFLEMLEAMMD
Procedure: as §1, §2

FXR (NR1H4) [2] = target: T3, FXR (NR1H4) (Homo sapiens, UniProt Q96RI1); assay: NVS_NR_hFXR: Human FXR CDCA (cell-free HTS); assay type: binding; details: scale not given, looks like -log10 of molar active concentration, 0 = no activity
T3 sequence (Q96RI1 1-486): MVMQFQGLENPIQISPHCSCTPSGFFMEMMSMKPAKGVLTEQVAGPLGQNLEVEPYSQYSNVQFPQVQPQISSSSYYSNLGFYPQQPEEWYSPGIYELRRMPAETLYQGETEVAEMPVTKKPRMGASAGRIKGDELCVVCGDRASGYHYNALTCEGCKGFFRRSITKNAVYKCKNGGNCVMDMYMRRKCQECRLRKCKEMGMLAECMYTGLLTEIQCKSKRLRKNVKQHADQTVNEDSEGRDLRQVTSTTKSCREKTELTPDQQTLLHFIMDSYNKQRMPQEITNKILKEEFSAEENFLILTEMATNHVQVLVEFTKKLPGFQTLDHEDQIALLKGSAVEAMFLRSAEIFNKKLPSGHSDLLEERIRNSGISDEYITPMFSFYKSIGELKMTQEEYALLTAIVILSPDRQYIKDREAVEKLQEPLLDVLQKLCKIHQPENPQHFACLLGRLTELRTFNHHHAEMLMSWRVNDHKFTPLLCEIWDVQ
Description: These are a collection of biochemical assays measuring binding constants and enzyme inhibition values. Chemicals were initially screened at a single concentration in duplicate wells at a concentration of 10 [drawing 63] M for cytochrome P-450 assays and 25 [drawing 64] M for all others. […] These assays were run by Caliper Life Sciences (Hanover, MD) under contract to EPA. Short assay descriptions are available at: http://www.caliperls.com/products/contract-research/in-vitro/.
Cell-free HTS Assays: A collection of biochemical assays measuring binding constants and enzyme inhibition values. […] These assays were run by Caliper Life Sciences (Hanover, MD) under contract to EPA. Short assay descriptions are available at http://www.caliperls.com/products/contract-research/in-vitro/. Values for all endpoints were imported into GeneData Screener (Basel, Switzerland) and normalised to solvent controls from the same plate as the tested compounds and expressed as percent of neutral control. Concentration-response curves were fit in GeneData Screener (Basel, Switzerland) Condeseo module using the Hill equation and AC50 values were determined. […] Detailed description of the methods, data and analysis methods for this dataset are described in a separate publication.

FXR (NR1H4) [3] = target: T3, FXR (NR1H4); assay: ATG_FXR_TRANS: Factorial reporter gene assay (HepG2); assay type: cell-based; parameters: expressed in transfected cells; host or cells: HepG2; scale not given here; details: scale not given, looks like -log10 of molar active concentration, 0 = no activity
Procedure: as §1, §2

Mouse Liver [4] = details: ref ToxRefDB, cited from earlier work
Mouse Liver [5] = details: ref ToxRefDB, cited from earlier work; remark: listed apart in the source
[6] = HepG2, scale not given, looks like -log10 of molar active concentration, 0 = no activity
[7] = mouse chronic study, liver, any lesion, coded 6 / Inf / 0, code not explained here
[8] = mouse chronic study, liver, neoplastic lesion, coded 6 / Inf / 0, code not explained here

| SMILES | ATG_CAR_TRANS (CAR (NR1I3); [6]) | ATG_ERRa_TRANS [1] | NVS_NR_hFXR (FXR (NR1H4) [2]) | ATG_FXR_TRANS (FXR (NR1H4) [3]) | CHR_Mouse_Liver_1_AnyLesion (Mouse Liver [4]; [7]) | other results |
| --- | --- | --- | --- | --- | --- | --- |
| COC(=O)c1ccccc1CS(=O)(=O)NC(=O)Nc1nc(OC)cc(OC)n1 [r33] | 0 | 0 | 0 | 0 | – | – |
| CC(C)N1C(=O)c2ccccc2NS1(=O)=O [r37] | – | 0 | – | – | 6 | CHR_Mouse_Liver_3_NeoplasticLesion (Mouse Liver [5]; [8]): 6 |
| COc1ccc(-c2ccccc2)cc1NNC(=O)OC(C)C [r38] | 0 | 0 | 0 | 0 | 6 | CHR_Mouse_Liver_3_NeoplasticLesion (Mouse Liver [5]; [8]): 6 |
| Cc1c(COC(=O)C2C(/C=C(\Cl)C(F)(F)F)C2(C)C)cccc1-c1ccccc1 (stereo not shown) [r39] | 0 | – | 0 | 0 | 6 | CHR_Mouse_Liver_3_NeoplasticLesion (Mouse Liver [5]; [8]): 6 |
| CC(C)(c1ccc(O)cc1)c1ccc(O)cc1 [r40] | 0 | 0 | – | – | 6 | – |
| OB(O)O [r41] | 0 | 0 | 0 | 0 | – | – |
| O=C(Nc1ccccc1-c1ccc(Cl)cc1)c1cccnc1Cl [r42] | 0 | 0 | – | – | 6 | – |
| CCC(C)n1c(=O)[nH]c(C)c(Br)c1=O (stereo not shown) [r43] | 0 | 0 | 0 | 0 | 6 | CHR_Mouse_Liver_3_NeoplasticLesion (Mouse Liver [5]; [8]): 6 |
| N#Cc1cc(Br)c(O)c(Br)c1 [r44] | 0 | 0 | 0 | 0 | 6 | CHR_Mouse_Liver_3_NeoplasticLesion (Mouse Liver [5]; [8]): 6 |
| CC(C)N1C(=O)N(c2ccccc2)CS/C1=N\C(C)(C)C [r45] | 0 | 0 | – | – | 6 | CHR_Mouse_Liver_3_NeoplasticLesion (Mouse Liver [5]; [8]): 6 |
| CCCCOCN(C(=O)CCl)c1c(CC)cccc1CC [r46] | 0 | 0 | 0 | 0 | – | – |
| C=CCOC(=O)C(C)(C)OC(=O)c1cc(-n2c(=O)cc(C(F)(F)F)n(C)c2=O)ccc1Cl [r47] | 0 | 0 | – | – | 6 | – |
| CCC(C)Nc1c([N+](=O)[O-])cc(C(C)(C)C)cc1[N+](=O)[O-] (stereo not shown) [r48] | – | 0 | – | – | – | – |
| CCSC(=O)N(CC(C)C)CC(C)C [r49] | 0 | 0 | – | – | 6 | – |
| O=C1C2CC=CCC2C(=O)N1SC(Cl)(Cl)Cl (stereo not shown) [r51] | 0 | 0 | – | – | – | – |
| CNC(=O)Oc1cccc2ccccc12 [r52] | 0 | – | 0 | 0 | 6 | CHR_Mouse_Liver_3_NeoplasticLesion (Mouse Liver [5]; [8]): 6 |
| CC1=C(C(=O)Nc2ccccc2)SCCO1 [r53] | – | 0 | 0 | 0 | 6 | – |
| CCOC(=O)C(Cl)Cc1cc(-n2nc(C)n(C(F)F)c2=O)c(F)cc1Cl (stereo not shown) [r54] | 0 | – | 0 | 0 | 6 | – |
| Nc1cnn(-c2ccccc2)c(=O)c1Cl [r56] | 0 | – | – | – | – | – |
| COc1cc(Cl)c(OC)cc1Cl [r57] | – | 0 | – | – | – | – |
| N#Cc1c(Cl)c(Cl)c(Cl)c(C#N)c1Cl [r58] | 0 | – | 0 | 0 | – | – |
| CC(C)OC(=O)Nc1cccc(Cl)c1 [r59] | – | 0 | 0 | 0 | 6 | – |
| COc1nc(C)nc(NC(=O)NS(=O)(=O)c2ccccc2Cl)n1 [r62] | 0 | 0 | – | – | – | – |
| COc1nc(C)nc(NC(=O)NS(=O)(=O)c2ccccc2Cl)n1 [r63] | 0 | 0 | – | – | – | – |
| Cc1ccccc1CO[C@@H]1C[C@@]2(C(C)C)CC[C@]1(C)O2 [r64] | 0 | – | – | – | 6 | CHR_Mouse_Liver_3_NeoplasticLesion (Mouse Liver [5]; [8]): 6 |
| C#CCC1=C(C)[C@H](OC(=O)[C@H]2[C@H](C=C(C)C)C2(C)C)CC1=O [r249] | – | – | – | – | – | CHR_Mouse_Liver_1_AnyLesion (Mouse Liver [4]; mouse, chronic study): 6 |
| CCCC1COC(Cn2cncn2)(c2ccc(Cl)cc2Cl)O1 (stereo not shown) [r262] | – | – | – | – | – | CHR_Mouse_Liver_1_AnyLesion (Mouse Liver [4]; mouse, chronic study): 6; CHR_Mouse_Liver_3_NeoplasticLesion (Mouse Liver [5]; mouse, chronic study): 6 |
| CC(C)=CC1C(C(=O)OCc2coc(Cc3ccccc3)c2)C1(C)C (stereo not shown) [r280] | – | – | – | – | – | ATG_CAR_TRANS (CAR (NR1I3); HepG2 reporter): 4.585; CHR_Mouse_Liver_1_AnyLesion (Mouse Liver [4]; chronic study, mouse liver): 6; CHR_Mouse_Liver_3_NeoplasticLesion (Mouse Liver [5]; chronic study, mouse liver): 6 |
| CC(C)Oc1cc(-n2nc(C(C)(C)C)oc2=O)c(Cl)cc1Cl [row 225] | – | – | – | – | – | CHR_Mouse_Liver_1_AnyLesion (Mouse Liver [4]; chronic mouse study, liver): 6; CHR_Mouse_Liver_3_NeoplasticLesion (Mouse Liver [5]; chronic mouse study, liver): 6 |

Reference: PMC3038857, “Using Nuclear Receptor Activity to Stratify Hepatocarcinogens” (PLoS ONE, 2011)
